This note sets out measurements from patent US20260297060A1, “COMPOUNDS FOR THE DEGRADATION OF MUTANT BRAF” (C4 THERAPEUTICS, INC., priority 2023, published 2026).

The GI50 is the concentration at which growth is held to half of that of the control. A low value points to greater sensitivity of the cells.

Test [1] has as its system A375-NRAS^Q61K cells. Kind of test: CTGlo Cell Viability Assay, A375-NRAS^Q61K (A375.11) cells, 96 hours. In kind it is cell-based, human. The note with it: A375.11 (A375-NRAS^Q61K) cells. In a few lines: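 Viability as CellTiter-Glo ATP luminescence after 96 h compound exposure at 37 °C; A375.11 (BRAF V600E/NRAS Q61K) cells at 250/well, top final concentration 10 μM in half-log steps. Signal was background-corrected and set relative to DMSO controls. A 4-parameter logistic fit gave GI50 (50% crossing) and Emax.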

For test [2], the target named is T1, BRAF V600E (Homo sapiens, UniProt P15056+Q96SW2, V600E).
T1 construct: knock-in of the HiBiT tag to the endogenous BRAF V600E locus; host or cells: A375.10 (A375 clonal line, CRISPR HiBiT knock-in at the endogenous BRAF V600E locus)
T1 sequence (P15056 whole entry V600E): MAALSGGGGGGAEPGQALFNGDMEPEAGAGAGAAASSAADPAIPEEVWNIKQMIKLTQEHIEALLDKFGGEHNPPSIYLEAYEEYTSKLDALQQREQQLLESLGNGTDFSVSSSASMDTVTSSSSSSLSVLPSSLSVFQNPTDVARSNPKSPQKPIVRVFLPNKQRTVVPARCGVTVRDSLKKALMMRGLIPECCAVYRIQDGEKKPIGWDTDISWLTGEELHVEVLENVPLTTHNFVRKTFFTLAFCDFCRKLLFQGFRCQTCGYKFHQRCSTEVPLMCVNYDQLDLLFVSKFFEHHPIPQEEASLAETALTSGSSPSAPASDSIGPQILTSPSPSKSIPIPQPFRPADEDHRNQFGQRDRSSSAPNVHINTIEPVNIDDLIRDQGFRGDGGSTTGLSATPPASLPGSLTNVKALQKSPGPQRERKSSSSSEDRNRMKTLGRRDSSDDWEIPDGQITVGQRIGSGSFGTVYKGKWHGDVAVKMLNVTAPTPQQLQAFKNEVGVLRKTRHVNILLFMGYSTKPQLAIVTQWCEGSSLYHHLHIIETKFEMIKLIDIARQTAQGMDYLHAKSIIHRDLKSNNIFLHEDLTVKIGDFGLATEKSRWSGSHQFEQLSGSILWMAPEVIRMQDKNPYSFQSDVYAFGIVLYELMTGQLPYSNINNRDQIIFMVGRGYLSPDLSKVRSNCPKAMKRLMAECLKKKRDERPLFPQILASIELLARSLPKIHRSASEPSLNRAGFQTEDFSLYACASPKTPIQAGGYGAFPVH
T1 sequence (Q96SW2 whole entry): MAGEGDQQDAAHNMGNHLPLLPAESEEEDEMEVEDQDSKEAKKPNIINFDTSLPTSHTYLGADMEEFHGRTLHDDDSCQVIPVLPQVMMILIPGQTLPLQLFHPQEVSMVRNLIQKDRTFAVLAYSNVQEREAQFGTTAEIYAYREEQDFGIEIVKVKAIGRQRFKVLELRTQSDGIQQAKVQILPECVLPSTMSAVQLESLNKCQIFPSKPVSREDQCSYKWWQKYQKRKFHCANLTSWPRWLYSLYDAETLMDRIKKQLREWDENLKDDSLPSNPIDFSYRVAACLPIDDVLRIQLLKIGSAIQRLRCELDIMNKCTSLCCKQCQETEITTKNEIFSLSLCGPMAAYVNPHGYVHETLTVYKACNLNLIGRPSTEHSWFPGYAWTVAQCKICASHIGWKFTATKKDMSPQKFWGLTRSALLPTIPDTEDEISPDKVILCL
T1 sequence (Q16531 whole entry partner): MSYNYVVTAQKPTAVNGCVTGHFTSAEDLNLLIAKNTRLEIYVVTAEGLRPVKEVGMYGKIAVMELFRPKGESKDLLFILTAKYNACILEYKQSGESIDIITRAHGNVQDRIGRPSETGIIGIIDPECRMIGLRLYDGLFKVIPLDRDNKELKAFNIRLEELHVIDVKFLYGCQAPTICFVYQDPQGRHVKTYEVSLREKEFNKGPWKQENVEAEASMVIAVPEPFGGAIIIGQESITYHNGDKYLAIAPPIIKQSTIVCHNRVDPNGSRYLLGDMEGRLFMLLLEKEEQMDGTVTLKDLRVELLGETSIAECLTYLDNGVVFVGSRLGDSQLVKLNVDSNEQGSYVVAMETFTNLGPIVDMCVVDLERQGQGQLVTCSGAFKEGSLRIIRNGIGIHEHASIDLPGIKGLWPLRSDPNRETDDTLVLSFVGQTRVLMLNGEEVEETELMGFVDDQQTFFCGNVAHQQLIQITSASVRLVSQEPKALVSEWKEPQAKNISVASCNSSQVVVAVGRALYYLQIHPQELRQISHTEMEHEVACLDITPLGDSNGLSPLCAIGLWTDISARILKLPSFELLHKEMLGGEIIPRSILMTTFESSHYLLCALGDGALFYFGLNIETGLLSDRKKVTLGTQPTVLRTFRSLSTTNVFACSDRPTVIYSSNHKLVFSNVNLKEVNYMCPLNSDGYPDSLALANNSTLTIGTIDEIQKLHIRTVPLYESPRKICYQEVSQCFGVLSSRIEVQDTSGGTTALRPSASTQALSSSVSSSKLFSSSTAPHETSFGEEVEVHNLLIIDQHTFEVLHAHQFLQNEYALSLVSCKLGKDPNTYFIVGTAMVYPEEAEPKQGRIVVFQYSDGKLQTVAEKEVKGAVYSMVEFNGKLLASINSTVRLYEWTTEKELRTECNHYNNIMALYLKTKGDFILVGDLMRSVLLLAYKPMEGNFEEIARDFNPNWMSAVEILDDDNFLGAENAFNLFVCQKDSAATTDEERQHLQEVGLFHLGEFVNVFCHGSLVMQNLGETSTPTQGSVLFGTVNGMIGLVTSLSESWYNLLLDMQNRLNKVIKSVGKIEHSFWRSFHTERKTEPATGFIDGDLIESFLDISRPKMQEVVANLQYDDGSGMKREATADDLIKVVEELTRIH
The test is described as follows: BRAF V600E HiBiT Degradation Assay. In kind it is cell-based. To be noted: A375.10 cells, BRAF V600E, 2 hours; for Emax: read-out: HiBiT-Degradation A375.10 BRAF 2 hours Emax. In a few lines:
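Endogenous HiBiT knock-in on BRAF V600E in A375 cells (clone A375.10); 11-point half-log series, top 10 μM, 2, 6 or 24 h at 37° C. Lytic HiBiT luminescence, background-subtracted, normalized to DMSO; 4-parameter fit gives DC50, Emax (residual protein) and IP (inflection point).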

Setting [3] is: Homo sapiens, 96 h, lowest % viability achieved.
Setting [4] is: inflection point, read-out: HiBiT-Degradation A375.10 BRAF 2 hours IP.
The mark [5] stands for this setting: read-out: HiBiT-Degradation A375.10 BRAF 2 hours DC50.

Where two headings read alike, the source gives them in different places. Some results are limits rather than exact numbers.

`CC(C)S(=O)(=O)Nc1ccc(F)c(Oc2ccc3ncc(C4CC5(CCN(C6CCC(c7cc8c(cc7F)c(N7CCC(=O)NC7=O)nn8C)CC6)CC5)C4)nc3c2)c1C#N` (single isomer, unassigned) [Compound 248, N-[2-cyano-3-[3-[7-[4-[3-(2,4-dioxohexahydropyrimidin-1-yl)-5-fluoro-1-methyl-indazol-6-yl]cyclohexyl]-7-azaspiro[3.5]nonan-2-yl]quinoxalin-6-yl]oxy-4-fluoro-phenyl]propane-2-sulfonamide] showed a GI50 in test [1] (Homo sapiens, 96 h) of 1000 to 10000 nM. The Emax in test [1] (setting [3]) is 50 to 90%; in test [2] (residual protein remaining) it was below 50%. Besides, the DC50 in test [2] (setting [4]) and in test [2] (setting [5]) was below 1000 nM each time.
For `CCN(C)S(=O)(=O)Nc1ccc(F)c(Oc2ccc3ncn(C4CC5(CC(N6CC[C@H](c7cc8c(cc7F)c(N7CCC(=O)NC7=O)nn8C)C(F)(F)C6)C5)C4)c(=O)c3c2)c1C#N` (stereo partly drawn) [Compound 217, 6-[2-cyano-3-[[ethyl(methyl)sulfamoyl]amino]-6-fluoro-phenoxy]-3-[2-[(4R)-4-[3-(2,4-dioxohexahydropyrimidin-1-yl)-5-fluoro-1-methyl-indazol-6-yl]-3,3-difluoro-1-piperidyl]spiro[3.3]heptan-6-yl]-4-oxo-quinazoline], the GI50 in test [1] (Homo sapiens, 96 h) lay in the range of 1000 to 10000 nM. In addition, the Emax was 50 to 90% in test [1] (setting [3]) and below 50% in test [2] (residual protein remaining). The DC50 in test [2] (setting [4]) and in test [2] (setting [5]) was below 1000 nM each time.
For the compound `CCN(C)S(=O)(=O)Nc1ccc(F)c(Oc2ccc3ncc(C4CC5(C4)CN(C4CC6(C4)CN(c4cc7c(cc4F)c(N4CCC(=O)NC4=O)nn7C)C6)C5)nc3c2)c1C#N` (stereo not drawn) [Compound 303, 7-[2-cyano-3-[[ethyl(methyl)sulfamoyl]amino]-6-fluoro-phenoxy]-2-[2-[2-[3-(2,4-dioxohexahydropyrimidin-1-yl)-5-fluoro-1-methyl-indazol-6-yl]-2-azaspiro[3.3]heptan-6-yl]-2-azaspiro[3.3]heptan-6-yl]quinoxaline], the GI50 in test [1] (Homo sapiens, 96 h) was above 10000 nM. Also, the Emax in test [1] (setting [3]) and in test [2] (residual protein remaining) was 50 to 90% throughout. In addition, the values for the DC50 in test [2] (setting [4]) and in test [2] (setting [5]) were below 1000 nM and 1000 to 10000 nM, respectively.
Turning to `CCN(C)S(=O)(=O)Nc1ccc(F)c(Oc2ccc3ncc(OC4CCN(C5CCC(c6cc7c(cc6F)c(N6CCC(=O)NC6=O)nn7C)CC5)CC4)nc3c2)c1C#N` (single isomer, unassigned) [Compound 124, 7-[2-cyano-3-[[ethyl(methyl)sulfamoyl]amino]-6-fluoro-phenoxy]-2-[[1-[4-[3-(2,4-dioxohexahydropyrimidin-1-yl)-5-fluoro-1-methyl-indazol-6-yl]cyclohexyl]-4-piperidyl]oxy]quinoxaline], the GI50 in test [1] (Homo sapiens, 96 h) was above 10000 nM. Further, the results for the Emax in test [1] (setting [3]) and in test [2] (residual protein remaining) were 50 to 90% and below 50%, respectively. The DC50 in test [2] (setting [4]) is below 1000 nM; in test [2] (setting [5]), 1000 to 10000 nM.
With `CCN(C)S(=O)(=O)Nc1ccc(F)c(Oc2ccc3ncn(CCC4CCN(C5CCC(c6cc7c(cc6F)c(N6CCC(=O)NC6=O)nn7C)CC5)CC4)c(=O)c3c2)c1C#N` (single isomer, unassigned) [Compound 138, 6-[2-cyano-3-[[ethyl(methyl)sulfamoyl]amino]-6-fluoro-phenoxy]-3-[2-[1-[4-[3-(2,4-dioxohexahydropyrimidin-1-yl)-5-fluoro-1-methyl-indazol-6-yl]cyclohexyl]-4-piperidyl]ethyl]-4-oxo-quinazoline], the GI50 in test [1] is 1000 to 10000 nM. The “CTGlo A375.11 96 hours Emax” value in test [1] (lowest % viability achieved) was “** (<90% and >50%)”. Also, the DC50 in test [2] (setting [4]) was below 1000 nM; in test [2] (setting [5]), 1000 to 10000 nM. Also, the “HiBiT-Degradation A375.10 BRAF 2 hours Emax” value in test [2] (residual protein remaining) is “** (<90% and >50%)”.
In test [1] (Homo sapiens, 96 h), `N#Cc1c(NS(=O)(=O)C2CCCC2)ccc(F)c1Oc1ccc2ncn([C@H]3COC4(CCN(C5CCC(c6ccc(NC7CCC(=O)NC7=O)cc6F)CC5)CC4)C3)c(=O)c2c1` (single isomer, unassigned) [Compound 136] had a GI50 below 1000 nM. Moreover, the Emax in test [1] (setting [3]) and in test [2] (residual protein remaining) was below 50% throughout. The DC50 in test [2] (setting [4]) and in test [2] (setting [5]) was below 1000 nM each time.
